From US12611406B2, “Oxopiperazine derivatives for the treatment of cancer” (Inthera Bioscience AG, priority 2020, dated 2026)
Like-named read-outs stand apart in the source and are kept apart here.

Columns and labels:
[1] = system: DU-145; test: γH2A.X Western blot (DNA damage biomarker); type: cell-based; details: 20 or 200 nM, 24 h
Procedure: (§1) Cell cycle phase distribution in control (C) cells or cells treated at 20 or 200 nM Compound 1 for 24 hours (24 h) determined by fluorescence activated cell sorting (FACS) analysis, and detection of histone H2A variant H2A.X phosphorylation (γH2A.X, also referred to herein as gamma H2A.X or γH2A.X) by Western blot as DNA damage biomarker.
(§2) The observed accumulation of DNA damage upon tumor cell exposure to Compound 1, measured as an increase of the DNA damage biomarker γH2A.X (FIG. 3A), is in line with reports of p300/CBP being involved in DNA replication and DNA damage repair (DDR). […] Among these DDR proteins are ATR (ataxia telangiectasia and Rad3-related), which controls crucial cell cycle and repair checkpoints, but also nibrin (NBS1), and poly(ADP-ribose) polymerase 1 (PARP-1).
(§3) In FIG. 3A, protein amounts were normalized using total protein load with ImageLab 6.0 Software (BioRad).

[2] = system: NCI-H69; test: γH2A.X Western blot (DNA damage biomarker); type: cell-based; details: 20 or 200 nM, 24 h
Procedure: as §1, §2, §3

[3] = system: NCI-H82; test: γH2A.X Western blot (DNA damage biomarker); type: cell-based; details: 20 or 200 nM, 24 h
Procedure: as §1, §2, §3

[4] = Single dose oral gavage or intravenous PK in female cynomolgus monkeys, plasma; type: in vivo; details: for clearance / Vd / AUC(0-inf) / AUC(0-t) / Cmax / Tmax / half-life: female, cynomolgus monkey, plasma; for clearance: read-out: cleared (Cl), mean rate (converted); for Vd: read-out: mean volume of distribution (Vz)
Procedure: The objective of the study was to determine the PK profile of Compound 1 following a single oral gavage or intravenous injection administration on 5 different occasions to female cynomolgus monkeys.
Compound 1, was administered as consecutive single doses on 5 occasions, separated by a washout period, by either oral gavage (4 and 12 mg/kg, Days 1 and 8) or by slow bolus intravenous (IV) injection (0.2 and 0.6 mg/kg, Days 15 and 22) to a group of female monkeys. In a subset of dosing the influence of grapefruit juice was evaluated (Day 34). Each single dose (Days 1, 8, 15, 22, and 34) was separated by a 7-day washout period. Blood samples were collected on Days 1, 8, 15, 22 and 34 at selected time points, i.e., 15 min, 30 min, as well as 1, 2, 4, 6, 8, and 24 hours relative to treatment for analysis of the concentration of Compound 1 in plasma and subsequent calculation of PK parameters. Additional parameters monitored included mortality, clinical observations and body weight.

For CC(C)C[C@@H]1NCCN([C@@H](CC(C)C)C(=O)N2CCC3(C[C@@H]2C)OCC(CN2CCCC2)CO3)C1=O (stereo partly drawn) [Compound 1, (S)-3-isobutyl-1-((S)-4-methyl-1-((S)-8-methyl-3-(pyrrolidin-1-ylmethyl)-1,5-dioxa-9-azaspiro[5.5]undecan-9-yl)-1-oxopentan-2-yl)piperazin-2-one], the “DNA damage marker γH2A.X” value [1] was “accumulation of the DNA damage marker γH2A.X”, the “DNA damage marker γH2A.X” value [2] was “accumulation of the DNA damage marker γH2A.X” and the “DNA damage marker γH2A.X” value [3] was “accumulation of the DNA damage marker γH2A.X”. It also gave a clearance ([4]; Day 15 (IV 0.2 mg/kg)) of 43.2 mL/min/kg, a Vd ([4]; Day 15 (IV 0.2 mg/kg)) of 17.4 ± 2.2 L/kg and a clearance ([4]; Day 22 (IV 0.6 mg/kg)) of 41 mL/min/kg. It also gave a Vd ([4]; Day 22 (IV 0.6 mg/kg)) of 16.9 ± 1.91 L/kg, an AUC(0-inf) ([4]; IV 0.2 mg/kg) of 77.4 ng·h/mL and an AUC(0-t) ([4]; IV 0.2 mg/kg) of 76.2 ng·h/mL. For the same molecule, the Cmax ([4]; IV 0.2 mg/kg) was 47.6 ng/mL, the Tmax ([4]; IV 0.2 mg/kg) was 0.08 h and the half-life ([4]; IV 0.2 mg/kg) was 4.64 h. It also gave an AUC(0-inf) ([4]; IV 0.6 mg/kg) of 244 ng·h/mL, an AUC(0-t) ([4]; IV 0.6 mg/kg) of 240 ng·h/mL and a Cmax ([4]; IV 0.6 mg/kg) of 162 ng/mL. For the same molecule, the Tmax ([4]; IV 0.6 mg/kg) was 0.08 h, the half-life ([4]; IV 0.6 mg/kg) was 4.74 h and the AUC(0-inf) ([4]; po 4 mg/kg) was 17.3 ng·h/mL. For the same molecule, the AUC(0-t) ([4]; po 4 mg/kg) was 16.9 ng·h/mL, the Cmax ([4]; po 4 mg/kg) was 5.52 ng/mL and the Tmax ([4]; po 4 mg/kg) was 0.5 h. It also gave a half-life ([4]; po 4 mg/kg) of 4.7 h, an AUC(0-inf) ([4]; po 12 mg/kg) of 133 ng·h/mL and an AUC(0-t) ([4]; po 12 mg/kg) of 130 ng·h/mL. For the same molecule, the Cmax ([4]; po 12 mg/kg) was 53.6 ng/mL, the Tmax ([4]; po 12 mg/kg) was 0.83 h and the half-life ([4]; po 12 mg/kg) was 5.46 h. The clinical signs ([4]; intravenous doses up to 0.6 mg/kg) was “decrease in appetite”, the clinical signs ([4]; single oral doses up to 12 mg/kg) was “did not result in any adverse clinical signs” and the “Cmax increase with grapefruit juice prior to dosing” value ([4]; vs animals without grapefruit juice, Day 34) was 2 fold.
